For 13 compounds, DC50 and Dmax results are on record in patent US20250059198A1, “BRM DEGRADING COMPOUNDS AND ASSOCIATED METHODS OF USE” (Arvinas Operations, Inc., priority 2021, published 2025).

The assay has as its target T1, BRM (Homo sapiens, UniProt P51531).
T1 construct: Western Blot Screen of BRM Degradation in SW1573 Cells; endogenous in cells; host or cells: SW1573 cells
The assay is described as follows: BRM degradation (Dmax and DC50) in SW1573 cells, Western blot screen / In-Cell Western screen. Format: cell-based. Particulars: overnight (18-20 hours) treatment; for Dmax: read-out: Dmax (%)** (% degraded). The method, boiled down:
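SW1573 cells were treated with compound for 18–20 h (final 0.1% DMSO). BRM was quantified either by Western blot of RIPA lysates or by fixed-cell In-Cell Western (LI-COR, 800/680 nm), each normalised to alpha-tubulin, giving Dmax and DC50.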
For orientation: A western blot detects proteins with antibodies after separation by electrophoresis.

T1 sequence (P51531 whole entry): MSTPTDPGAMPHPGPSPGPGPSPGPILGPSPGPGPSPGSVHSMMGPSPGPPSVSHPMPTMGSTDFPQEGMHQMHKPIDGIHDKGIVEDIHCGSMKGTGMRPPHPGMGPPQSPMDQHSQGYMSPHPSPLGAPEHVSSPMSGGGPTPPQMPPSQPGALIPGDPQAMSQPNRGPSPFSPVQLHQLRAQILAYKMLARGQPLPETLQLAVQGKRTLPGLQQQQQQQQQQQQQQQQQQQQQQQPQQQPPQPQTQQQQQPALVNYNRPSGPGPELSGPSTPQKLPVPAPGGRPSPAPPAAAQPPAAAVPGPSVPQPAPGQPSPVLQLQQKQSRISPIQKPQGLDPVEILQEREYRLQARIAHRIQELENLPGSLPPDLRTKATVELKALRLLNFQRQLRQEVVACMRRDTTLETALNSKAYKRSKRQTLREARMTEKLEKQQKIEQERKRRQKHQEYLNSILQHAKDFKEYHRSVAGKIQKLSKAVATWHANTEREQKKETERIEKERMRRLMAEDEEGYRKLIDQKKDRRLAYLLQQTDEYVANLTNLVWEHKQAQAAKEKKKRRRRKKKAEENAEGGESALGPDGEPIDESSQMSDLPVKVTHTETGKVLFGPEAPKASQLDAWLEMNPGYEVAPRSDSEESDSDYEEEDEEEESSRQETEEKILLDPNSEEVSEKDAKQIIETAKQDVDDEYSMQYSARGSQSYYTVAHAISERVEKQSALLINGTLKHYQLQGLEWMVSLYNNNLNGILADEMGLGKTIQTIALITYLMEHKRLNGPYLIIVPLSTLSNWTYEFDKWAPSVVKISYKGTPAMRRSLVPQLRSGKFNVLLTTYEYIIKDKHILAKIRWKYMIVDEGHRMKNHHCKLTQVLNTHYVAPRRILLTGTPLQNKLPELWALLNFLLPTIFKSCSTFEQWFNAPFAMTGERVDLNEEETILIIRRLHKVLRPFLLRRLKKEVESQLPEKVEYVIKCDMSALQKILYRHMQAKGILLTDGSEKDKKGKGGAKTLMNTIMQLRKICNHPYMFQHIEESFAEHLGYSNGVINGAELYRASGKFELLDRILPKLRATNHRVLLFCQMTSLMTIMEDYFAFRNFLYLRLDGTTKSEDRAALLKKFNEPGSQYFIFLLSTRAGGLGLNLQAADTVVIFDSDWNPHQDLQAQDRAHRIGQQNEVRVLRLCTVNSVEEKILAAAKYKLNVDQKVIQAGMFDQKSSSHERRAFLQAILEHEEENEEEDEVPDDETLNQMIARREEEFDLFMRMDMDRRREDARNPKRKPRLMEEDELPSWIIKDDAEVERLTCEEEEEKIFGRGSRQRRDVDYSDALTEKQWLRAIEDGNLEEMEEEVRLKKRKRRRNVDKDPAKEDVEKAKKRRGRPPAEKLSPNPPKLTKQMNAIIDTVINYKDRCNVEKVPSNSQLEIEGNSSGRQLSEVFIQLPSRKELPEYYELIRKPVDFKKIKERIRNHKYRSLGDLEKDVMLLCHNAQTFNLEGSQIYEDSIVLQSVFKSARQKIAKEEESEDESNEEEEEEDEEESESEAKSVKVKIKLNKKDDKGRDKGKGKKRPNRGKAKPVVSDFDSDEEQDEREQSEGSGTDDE

On to `Cc1ncsc1-c1ccc([C@H](C)NC(=O)[C@@H]2C[C@@H](O)CN2C(=O)[C@@H](c2cc(N3CCC(CN4CCC5(CC4)CC(Oc4cc(N6C7CCC6CN(c6cc(-c8ccccc8O)nnc6N)C7)ccn4)C5)CC3)no2)C(C)C)cc1` [Compound 29, (2S,4R)-1-[(2R)-2-{3-[4-({2-[(4-{3-[3-amino-6-(2-hydroxyphenyl)pyridazin-4-yl]-3,8-diazabicyclo[3.2.1]octan-8-yl}pyridin-2-yl)oxy]-7-azaspiro[3.5]nonan-7-yl}methyl)piperidin-1-yl]-1,2-oxazol-5-yl}-3-methylbutanoyl]-4-hydroxy-N-[(1S)-1-[4-(4-methyl-1,3-thiazol-5-yl)phenyl]ethyl]pyrrolidine-2-carboxamide], for which the DC50 is under 2.5 nM and the Dmax is over 75%. In the case of `Cc1ncsc1-c1ccc([C@H](C)NC(=O)[C@@H]2C[C@@H](O)CN2C(=O)[C@@H](c2cc(N3CCC(CN4CCC5(CC4)CC(N4CCC[C@](O)(CN6C7CCC6CN(c6cc(-c8ccccc8O)nnc6N)C7)C4)C5)CC3)no2)C(C)C)cc1` [Compound 61, (2S,4R)-1-[(2R)-2-{3-[4-({2-[(3R)-3-({3-[3-amino-6-(2-hydroxyphenyl)pyridazin-4-yl]-3,8-diazabicyclo[3.2.1]octan-8-yl}methyl)-3-hydroxypiperidin-1-yl]-7-azaspiro[3.5]nonan-7-yl}methyl)piperidin-1-yl]-1,2-oxazol-5-yl}-3-methylbutanoyl]-4-hydroxy-N-[(1S)-1-[4-(4-methyl-1,3-thiazol-5-yl)phenyl]ethyl]pyrrolidine-2-carboxamide], the DC50 was under 2.5 nM and the Dmax is over 75%. With `Cc1ncsc1-c1ccc([C@H](C)NC(=O)[C@H]2C[C@@H](O)CN2C(=O)[C@@H](c2cc(N3CCC(CN4CCC(O[C@H]5C[C@H](OC(=O)N6CCN(c7cc(-c8ccccc8O)nnc7N)CC6)C5)CC4)CC3)no2)C(C)C)cc1` [Compound 45, (1rs,3rs)-3-({1-[(1-{5-[(2R)-1-[(2S,4R)-4-hydroxy-2-{[(1S)-1-[4-(4-methyl-1,3-thiazol-5-yl)phenyl]ethyl]carbamoyl}pyrrolidin-1-yl]-3-methyl-1-oxobutan-2-yl]-1,2-oxazol-3-yl}piperidin-4-yl)methyl]piperidin-4-yl}oxy)cyclobutyl 4-[3-amino-6-(2-hydroxyphenyl)pyridazin-4-yl]piperazine-1-carboxylate], the DC50 is under 2.5 nM and the Dmax was over 75%.

As to `Cc1ncsc1-c1ccc([C@H](C)NC(=O)[C@@H]2C[C@@H](O)CN2C(=O)[C@@H](c2cc(N3CCC(CN4CCC5(CC4)CC(N4CCOC6(CN(CC7C8CCC7CN(c7cc(-c9ccccc9O)nnc7N)C8)C6)C4)C5)CC3)no2)C(C)C)cc1` (stereo partly drawn) [Compound 125, (2S,4R)-1-[(2R)-2-{3-[4-({2-[2-({3-[3-amino-6-(2-hydroxyphenyl)pyridazin-4-yl]-3-azabicyclo[3.2.1]octan-8-yl}methyl)-5-oxa-2,8-diazaspiro[3.5]nonan-8-yl]-7-azaspiro[3.5]nonan-7-yl}methyl)piperidin-1-yl]-1,2-oxazol-5-yl}-3-methylbutanoyl]-4-hydroxy-N-[(1S)-1-[4-(4-methyl-1,3-thiazol-5-yl)phenyl]ethyl]pyrrolidine-2-carboxamide], the DC50 is under 2.5 nM and the Dmax is over 75%. Take `Cc1ncsc1-c1ccc([C@H](C)NC(=O)[C@@H]2C[C@@H](O)CN2C(=O)[C@@H](c2cc(N3CCC(CN4CCC(O)(C#C[C@H]5C[C@H](Oc6cc(N7C8CCC7CN(c7cc(-c9ccccc9O)nnc7N)C8)ccn6)C5)CC4)CC3)no2)C(C)C)cc1` [Compound 19, (2S,4R)-4-hydroxy-1-[(2R)-2-(3-{4-[(4-hydroxy-4-{2-[(1r,3r)-3-[(4-{3-[3-amino-6-(2-hydroxyphenyl)pyridazin-4-yl]-3,8-diazabicyclo[3.2.1]octan-8-yl}pyridin-2-yl)oxy]cyclobutyl]ethynyl}piperidin-1-yl)methyl]piperidin-1-yl}-1,2-oxazol-5-yl)-3-methylbutanoyl]-N-[(1S)-1-[4-(4-methyl-1,3-thiazol-5-yl)phenyl]ethyl]pyrrolidine-2-carboxamide]: the DC50 is under 2.5 nM and the Dmax was over 75%. For `Cc1ncsc1-c1ccc([C@H](C)NC(=O)[C@@H]2C[C@@H](O)CN2C(=O)[C@@H](c2cc(N3CCC(CN4CC[C@@H](OC(=O)N5CCN(c6cc(-c7ccccc7O)nnc6N)CC5)[C@@H](F)C4)CC3)no2)C(C)C)cc1` [Compound 101, (3S,4R)-3-fluoro-1-[(1-{5-[(2R)-1-[(2S,4R)-4-hydroxy-2-{[(1S)-1-[4-(4-methyl-1,3-thiazol-5-yl)phenyl]ethyl]carbamoyl}pyrrolidin-1-yl]-3-methyl-1-oxobutan-2-yl]-1,2-oxazol-3-yl}piperidin-4-yl)methyl]piperidin-4-yl 4-[3-amino-6-(2-hydroxyphenyl)pyridazin-4-yl]piperazine-1-carboxylate], in that order: under 2.5 nM and over 75%. Consider `CC(C)[C@H](C(=O)N1C[C@H](O)C[C@H]1C(=O)N[C@@H](C)c1ccc(-c2ccnn2C)cc1)c1cc(N2CCC(CN3CCC(CN4CCC5(CC4)CC(Oc4cc(N6C7CCC6CN(c6cc(-c8ccccc8O)nnc6N)C7)ccn4)C5)CC3)CC2)no1` [Compound 33, (2S,4R)-1-[(2S)-2-[3-(4-{[4-({2-[(4-{3-[3-amino-6-(2-hydroxyphenyl)pyridazin-4-yl]-3,8-diazabicyclo[3.2.1]octan-8-yl}pyridin-2-yl)oxy]-7-azaspiro[3.5]nonan-7-yl}methyl)piperidin-1-yl]methyl}piperidin-1-yl)-1,2-oxazol-5-yl]-3-methylbutanoyl]-4-hydroxy-N-[(1S)-1-[4-(1-methyl-1H-pyrazol-5-yl)phenyl]ethyl]pyrrolidine-2-carboxamide], for which the DC50 fell in the range of 10 to 30 nM and the Dmax was over 75%. With `CC(C)[C@@H](C(=O)N1C[C@H](O)C[C@H]1C(=O)N[C@@H](C)c1ccc(-c2ccnn2C)cc1)c1cc(N2CCC(CN3CCC(O[C@H]4C[C@H](Oc5cc(/C=C/c6cc(-c7ccccc7O)nnc6N)ccn5)C4)CC3)CC2)no1` [Compound 30, (2S,4R)-4-hydroxy-N-[(1S)-1-[4-(1-methyl-1H-pyrazol-5-yl)phenyl]ethyl]-1-[(2R)-3-methyl-2-{3-[4-({4-[(1r,3r)-3-({4-[(1E)-2-[3-amino-6-(2-hydroxyphenyl)pyridazin-4-yl]ethenyl]pyridin-2-yl}oxy)cyclobutoxy]piperidin-1-yl}methyl)piperidin-1-yl]-1,2-oxazol-5-yl}butanoyl]pyrrolidine-2-carboxamide], the DC50 was under 2.5 nM and the Dmax was over 75%.

For the compound `CC(C)[C@H](C(=O)N1C[C@H](O)C[C@H]1C(=O)N[C@@H](C)c1ccc(C#N)cc1)c1cc(N2CCC(OCCN3CCC(Oc4cc(N5CCN(c6cc(-c7ccccc7O)nnc6N)CC5)ccn4)CC3)CC2)no1` [Compound 154, (2S,4R)-1-[(2S)-2-{3-[4-(2-{4-[(4-{4-[3-amino-6-(2-hydroxyphenyl)pyridazin-4-yl]piperazin-1-yl}pyridin-2-yl)oxy]piperidin-1-yl}ethoxy)piperidin-1-yl]-1,2-oxazol-5-yl}-3-methylbutanoyl]-N-[(1S)-1-(4-cyanophenyl)ethyl]-4-hydroxypyrrolidine-2-carboxamide], the DC50 was at least 30 nM. Take `Cc1ncsc1-c1ccc([C@H](C)NC(=O)[C@@H]2C[C@@H](O)CN2C(=O)[C@@H](c2cc(N3CCC(CN4CCC(O[C@H]5C[C@H](N6CCC([C@@H](C)n7cc(-c8cc(-c9ccccc9O)nnc8N)cn7)CC6)C5)CC4)CC3)no2)C(C)C)cc1` (single isomer, unassigned) [Compound 7]: the DC50 was under 2.5 nM and the Dmax was over 75%. Regarding `CC(C)[C@H](C(=O)N1C[C@H](O)C[C@H]1C(=O)N[C@@H](C)c1ccc(C#N)cc1)c1cc(N2CCN(C(=O)N3CCC(O[C@H]4C[C@H](Oc5cc(N6C7CCC6CN(c6cc(-c8ccccc8O)nnc6N)C7)ccn5)C4)CC3)CC2)no1` [Compound 139, (2S,4R)-N-[(1S)-1-(4-cyanophenyl)ethyl]-4-hydroxy-1-[(2S)-3-methyl-2-[3-(4-{4-[(1r,3r)-3-[(4-{3-[3-amino-6-(2-hydroxyphenyl)pyridazin-4-yl]-3,8-diazabicyclo[3.2.1]octan-8-yl}pyridin-2-yl)oxy]cyclobutoxy]piperidine-1-carbonyl}piperazin-1-yl)-1,2-oxazol-5-yl]butanoyl]pyrrolidine-2-carboxamide], the DC50 was at least 30 nM. `Cc1ncsc1-c1ccc([C@H](C)NC(=O)[C@@H]2C[C@@H](O)CN2C(=O)[C@@H](c2cc(OCCOC(=O)N3CCC(O[C@H]4C[C@H](Oc5cc(N6C7CCC6CN(c6cc(-c8ccccc8O)nnc6N)C7)ccn5)C4)CC3)no2)C(C)C)cc1` [Compound 127, 2-({5-[(2R)-1-[(2S,4R)-4-hydroxy-2-{[(1S)-1-[4-(4-methyl-1,3-thiazol-5-yl)phenyl]ethyl]carbamoyl}pyrrolidin-1-yl]-3-methyl-1-oxobutan-2-yl]-1,2-oxazol-3-yl}oxy)ethyl 4-[(1r,3r)-3-[(4-{3-[3-amino-6-(2-hydroxyphenyl)pyridazin-4-yl]-3,8-diazabicyclo[3.2.1]octan-8-yl}pyridin-2-yl)oxy]cyclobutoxy]piperidine-1-carboxylate] gave a DC50 of at least 30 nM. `CC(C)[C@@H](C(=O)N1C[C@H](O)C[C@H]1C(=O)N[C@@H](C)c1ccc(-c2scnc2C#CCOCCOCCOCCOc2cc(N3C4CCC3CN(c3cc(-c5ccccc5O)nnc3N)C4)ccn2)cc1)N1Cc2ccccc2C1=O` [Compound 72, (2S,4R)-N-[(1S)-1-[4-(4-{3-[2-(2-{2-[(4-{3-[3-amino-6-(2-hydroxyphenyl)pyridazin-4-yl]-3,8-diazabicyclo[3.2.1]octan-8-yl}pyridin-2-yl)oxy]ethoxy}ethoxy)ethoxy]prop-1-yn-1-yl}-1,3-thiazol-5-yl)phenyl]ethyl]-4-hydroxy-1-[(2S)-3-methyl-2-(1-oxo-2,3-dihydro-1H-isoindol-2-yl)butanoyl]pyrrolidine-2-carboxamide] gave a DC50 of at least 30 nM.

A word on the DC50: it is the concentration at which degradation of the target reaches its halfway point. A lower DC50 goes with a more potent degrader. What is called Dmax is the greatest extent of degradation seen.
